Experimental data: patent publication US20200024278A1, “COMPOSITION COMPRISING ANTIBIOTIC COMPOUND AND AN HETEROCYCLIC COMPOUND AND THEIR USE IN PREVENTING OR TREATING BACTERIAL INFECTIONS” (MUTABILIS, priority 2016, published 2020)

Assays:
Experiment in all cases: MIC, broth microdilution (CLSI), substance alone or ATB combined with compound at 4 or 8 μg/mL
KPN 6299 = type: cell-based, K. pneumoniae
Method in brief: (§1)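 Growth inhibition endpoint, read visually after 16-20 h at 35° C in ambient air. Cation-adjusted Mueller-Hinton broth, inoculum 5·10^5 CFU/mL, CLSI M7-A7 protocol.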

KPN UFR42 = type: cell-based, K. pneumoniae; conditions: KPN UFR42
Method in brief: as §1

KPN BAA-1898 = type: cell-based, K. pneumoniae; conditions: KPN BAA-1898
Method in brief: as §1

ECO UFR39 = type: cell-based, E. coli; conditions: ECO UFR39
Method in brief: as §1

ECO 190317 = type: cell-based, E. coli; conditions: ECO 190317
Method in brief: as §1

SPN 49619 = type: cell-based, S. pneumoniae; conditions: SPN 49619
Method in brief: as §1

CN(C)c1cc(NC(=O)CNC(C)(C)C)c(O)c2c1C[C@H]1C[C@H]3[C@H](N(C)C)C(O)=C(C(N)=O)C(=O)[C@@]3(O)C(O)=C1C2=O [TGC]
0.5 µg/mL: MIC ATB combined with Example 13 @8 μg/ml (KPN 6299; with Example 13 at 8 μg/ml) | MIC ATB combined with Example 7 @8 μgml (KPN UFR42; with Example 7 at 8 μg/ml) | MIC ATB alone (ECO UFR39; antibiotic alone)
0.25 µg/mL: MIC ATB combined with Example 9 @4 μg/ml (KPN UFR42; with Example 9 @4 μg/ml) | MIC ATB combined with Example 9 @4 μg/ml (KPN UFR42; with Example 9 at 4 μg/ml) | MIC ATB alone (ECO 190317; antibiotic alone)
0.063 µg/mL: MIC ATB combined with Example 7 @8 μgml (SPN 49619; with Example 7 at 8 μg/ml) | MIC ATB combined with Example 13 @8 μg/ml (SPN 49619; with Example 13 at 8 μg/ml)
<0.031 µg/mL: MIC ATB combined with Example 11 @8 μg/ml (KPN 6299; with Example 11 at 8 μg/ml) | MIC ATB combined with Example 12 @8 μg/ml (KPN 6299; with Example 12 at 8 μg/ml) | MIC ATB combined with Example 14 @8 μg/ml (KPN 6299; with Example 14 at 8 μg/ml) | MIC ATB combined with Example 15 @4 μgml (KPN 6299; with Example 15 at 4 μg/ml) | MIC ATB combined with Example 16 @4 μg/ml (KPN 6299; with Example 16 at 4 μg/ml) | MIC ATB combined with Example 11 @8 μg/ml (KPN UFR42; with Example 11 at 8 μg/ml) | MIC ATB combined with Example 12 @8 μg/ml (KPN UFR42; with Example 12 at 8 μg/ml) | MIC ATB combined with Example 14 @8 μg/ml (KPN UFR42; with Example 14 at 8 μg/ml) | MIC ATB combined with Example 15 @4 μgml (KPN UFR42; with Example 15 at 4 μg/ml) | MIC ATB combined with Example 16 @4 μg/ml (KPN UFR42; with Example 16 at 4 μg/ml) | MIC ATB combined with Example 9 @4 μg/ml (KPN BAA-1898; with Example 9 @4 μg/ml) | MIC ATB combined with Example 9 @4 μg/ml (KPN BAA-1898; with Example 9 at 4 μg/ml) | MIC ATB combined with Example 11 @8 μg/ml (KPN BAA-1898; with Example 11 at 8 μg/ml) | MIC ATB combined with Example 12 @8 μg/ml (KPN BAA-1898; with Example 12 at 8 μg/ml) | MIC ATB combined with Example 14 @8 μg/ml (KPN BAA-1898; with Example 14 at 8 μg/ml) | MIC ATB combined with Example 15 @4 μgml (KPN BAA-1898; with Example 15 at 4 μg/ml) | MIC ATB combined with Example 16 @4 μg/ml (KPN BAA-1898; with Example 16 at 4 μg/ml) | MIC ATB combined with Example 1 @8 μg/ml (ECO UFR39; with Example 1 @8 μg/ml) | MIC ATB combined with Example 1 @8 μg/ml (ECO UFR39; with Example 1 at 8 μg/ml) | MIC ATB combined with Example 7 @8 μgml (ECO UFR39; with Example 7 at 8 μg/ml) | MIC ATB combined with Example 9 @4 μg/ml (ECO UFR39; with Example 9 @4 μg/ml) | MIC ATB combined with Example 9 @4 μg/ml (ECO UFR39; with Example 9 at 4 μg/ml) | MIC ATB combined with Example 11 @8 μg/ml (ECO UFR39; with Example 11 at 8 μg/ml) | MIC ATB combined with Example 12 @8 μg/ml (ECO UFR39; with Example 12 at 8 μg/ml) | MIC ATB combined with Example 13 @8 μg/ml (ECO UFR39; with Example 13 at 8 μg/ml) | MIC ATB combined with Example 14 @8 μg/ml (ECO UFR39; with Example 14 at 8 μg/ml) | MIC ATB combined with Example 15 @4 μgml (ECO UFR39; with Example 15 at 4 μg/ml) | MIC ATB combined with Example 16 @4 μg/ml (ECO UFR39; with Example 16 at 4 μg/ml) | MIC ATB combined with Example 1 @8 μg/ml (ECO 190317; with Example 1 @8 μg/ml) | MIC ATB combined with Example 1 @8 μg/ml (ECO 190317; with Example 1 at 8 μg/ml) | MIC ATB combined with Example 7 @8 μgml (ECO 190317; with Example 7 at 8 μg/ml) | MIC ATB combined with Example 9 @4 μg/ml (ECO 190317; with Example 9 @4 μg/ml) | MIC ATB combined with Example 9 @4 μg/ml (ECO 190317; with Example 9 at 4 μg/ml) | MIC ATB combined with Example 11 @8 μg/ml (ECO 190317; with Example 11 at 8 μg/ml) | MIC ATB combined with Example 12 @8 μg/ml (ECO 190317; with Example 12 at 8 μg/ml) | MIC ATB combined with Example 13 @8 μg/ml (ECO 190317; with Example 13 at 8 μg/ml) | MIC ATB combined with Example 14 @8 μg/ml (ECO 190317; with Example 14 at 8 μg/ml) | MIC ATB combined with Example 15 @4 μgml (ECO 190317; with Example 15 at 4 μg/ml) | MIC ATB combined with Example 16 @4 μg/ml (ECO 190317; with Example 16 at 4 μg/ml) | MIC ATB combined with Example 9 @4 μg/ml (SPN 49619; with Example 9 @4 μg/ml) | MIC ATB combined with Example 9 @4 μg/ml (SPN 49619; with Example 9 at 4 μg/ml) | MIC ATB combined with Example 12 @8 μg/ml (SPN 49619; with Example 12 at 8 μg/ml) | MIC ATB combined with Example 14 @8 μg/ml (SPN 49619; with Example 14 at 8 μg/ml) | MIC ATB combined with Example 16 @4 μg/ml (SPN 49619; with Example 16 at 4 μg/ml)
1 µg/mL: MIC ATB alone (KPN BAA-1898; antibiotic alone) | MIC ATB combined with Example 1 @8 μg/ml (KPN BAA-1898; with Example 1 @8 μg/ml) | MIC ATB combined with Example 1 @8 μg/ml (KPN BAA-1898; with Example 1 at 8 μg/ml) | MIC ATB combined with Example 7 @8 μgml (KPN BAA-1898; with Example 7 at 8 μg/ml) | MIC ATB combined with Example 13 @8 μg/ml (KPN BAA-1898; with Example 13 at 8 μg/ml)
0.125 µg/mL: MIC ATB alone (SPN 49619; antibiotic alone) | MIC ATB combined with Example 1 @8 μg/ml (SPN 49619; with Example 1 @8 μg/ml) | MIC ATB combined with Example 1 @8 μg/ml (SPN 49619; with Example 1 at 8 μg/ml)
2 µg/mL: MIC ATB alone (KPN UFR42; antibiotic alone) | MIC ATB combined with Example 1 @8 μg/ml (KPN UFR42; with Example 1 @8 μg/ml) | MIC ATB combined with Example 1 @8 μg/ml (KPN UFR42; with Example 1 at 8 μg/ml) | MIC ATB combined with Example 13 @8 μg/ml (KPN UFR42; with Example 13 at 8 μg/ml)
<=0.031 μg/mL: MIC ATB combined with Example 11 @8 μg/ml (SPN 49619; with Example 11 at 8 μg/ml) | MIC ATB combined with Example 15 @4 μgml (SPN 49619; with Example 15 at 4 μg/ml)
